These results are taken from patent publication US7321046B2, “Analogs of dictyostatin, intermediates therefor and methods of synthesis thereof” (University of Pittsburgh, priority 2002, dated 2008).

What is called EC50 is the midpoint of the concentration-response curve.

SMILES strings stand for the structures. Like-named read-outs stand apart in the source and are kept apart here. A value given as a limit tells only on which side of the number the result lay.

For test [1], the system named is human ovarian carcinoma cells (1A9). Nature of the test: Antiproliferative assay (GI50, MTS). It counts as cell-based. The conditions noted are these: for antiproliferative potency / GI50 values (in words): Table 1 (1A9 and mutant lines). Here is the method:
(§1) Representative analogs were examined for their antiproliferative activities against human ovarian carcinoma 1A9 cells and their paclitaxel-resistant mutants, 1A9/Ptx10 and 1A9/Ptx22.
[…] Cells were maintained in RPMI medium with 10% FBS in it, plated in tissue culture plates, and allowed to grow for 48-72 h before transferring them into 96-well plates. Cells were allowed to attach and grow for 48 h in 96-well plates after which they were treated with either control (DMSO) or drug in triplicate/quadruplicate. Cells were incubated with the compounds for 72 h. Cells were treated with MTS reagent before reading the plate in a Dynamax plate reader for determining the cell number. The fifty percent growth inhibition values (GI50 values) were calculated for the compounds against all the three cell lines.

The test system of test [2] is 1A9/Ptx10 (Phe270 −> Val) β-tubulin mutant cells. Briefly: Antiproliferative assay (GI50, MTS), paclitaxel-resistant clone. It counts as cell-based, human. The following applies: for fold-resistance: 1A9/Ptx10 versus parental 1A9. Here is the method: as §1
(§2) The effects of dictyostatin and its analogs on growth inhibition of parental ([…]) and paclitaxel-resistant (1A9/Ptx10 and Ptx22) ovarian adenocarcinoma cell lines were evaluated following the antiproliferative assay protocol as described earlier (Minguez et al., 2003; Choy et al., 2003; Lazo et al., 2001). Cells were maintained in RPMI medium with 10% FBS in it, plated in tissue culture plates, and allowed to grow for 48-72 h before transferring them into 96-well plates. Cells were allowed to attach and grow for 48 h in 96-well plates after which they were treated with either control (DMSO) or drug in triplicate/quadruplicate. Cells were incubated with the compounds for 72 h. Cells were treated with MTS reagent before reading the plate in a Dynamax plate reader for determining the cell number. The fifty percent growth inhibition values (GI50 values) were calculated for the compounds against all the three cell lines.

Test [3] relates to 1A9/Ptx22 (Ala364 −> Thr) β-tubulin mutant cells. The test is described as above. The class given is cell-based, human. The following applies: for fold-resistance: 1A9/Ptx22 versus parental 1A9. Here is the method: as §1, §2
The next test relates to T1, Bovine brain tubulin.
T1 construct: Bovine brain tubulin (10 μM) in 0.2 M MSG, 15 min at 20° C
Briefly: Pelleting assay (tubulin assembly EC50 determination). It counts as biochemical. The conditions noted are these: for % Tubulin polymerized by 50 μM test agent / EC50: tubulin 10 μM in 0.2 M MSG, 15 min at 20° C.; for EC50: concentration required to polymerize 50% of tubulin, read-out: EC50 (μM) ± SD (N). The method, then:
Dictyostatin and representative analogs were evaluated in a quantitative assay for their ability to promote tubulin polymerization. […] When the percent polymer formed was determined in the reactions, a comparison of the activities of all the analogs could be made.
The assay was performed under three different reaction conditions following the procedure reported earlier (Gapud et al., 2004). Reaction condition 1 included 0.2 M monosodium glutamate (MSG), 10 μM tubulin, 5% DMSO and varying concentrations of test agents. Reaction condition 2 included 0.8 M MSG, 400 μM GTP, 10 μM tubulin, 5% DMSO, and varying concentrations of test agents. Reaction condition 3 had 0.6 M MSG, 200 μM GTP, and 10 μM tubulin, and 5% DMSO, and varying concentrations of the test agents. The experimental protocol for all the three reaction conditions was the following. The reaction mixtures were incubated at room temperature (20-22° C.) for 15 min and spun for 10 min at 14,000 rpm in an Eppendorf microtube centrifuge. Aliquots of the supernatants were removed and assayed for protein content by the method of Lowry.

The next test deals with HeLa cells. Nature of the test: Multiparameter fluorescence high information content analysis of cellular effects. It counts as cell-based. On the set-up: unit not given here. The following applies: 24 h treatment; for Minimum detectable cellular change, Nuclear condensation: Hoechst 33342. Here is the method:
HeLa cells were plated on collagen-coated 384-well microtiter plates, allowed to attach, then treated for 24 h with test agents. Test agent concentrations began at 1 μM, and two-fold dilutions were made to levels below 1 nM. After the treatment period, the cells were fixed with formalin and their chromatin stained with Hoechst 33342. Cells were permeabilized and treated with primary antibodies for α-tubulin and phosphohistone H3, and then with fluorophore-labeled secondary antibodies. The three fluorescent channels were then examined on an ArrayScan II, which gives quantitative pixel distribution and density information in each channel on a per cell basis.
HeLa cells growing at log phase were trypsinized and plated in 40 μL at a density of 7,000-8,000 cells per well in calf skin collagen I-coated 384-well plates (Falcon #3962; Fisher Scientific). Cells were exposed to test agents or 0.5% DMSO within 2-8 h of plating. Concentrated DMSO stock solutions of all test agents were diluted into solutions of HBSS medium plus 10% FBS and added to the microplate wells (10 μL per well), using an automated liquid handling system (Biomek® 2000; Beckman-Coulter, Inc.) to provide a serial 2-fold dilution of each test agent. The cells were incubated in the presence of test agents for 24 h. At the end of the incubation, the medium was removed and replaced with HBSS containing 4% formaldehyde and 10 μg/mL Hoechst 33342 (25 μL/well) to fix the cells and fluorescently label their chromatin. After incubation at room temperature for 20-30 min, the solution was removed from each well and replaced with HBSS (100 μL/well). Further reagent additions were made to the microplates using the Biomek 2000. After removing the HBSS from each well, cells were permeabilized for 5 min at room temperature with 0.5% (w/w) Triton X-100 in HBSS (10 μL/well). This step extracts a fraction of the soluble cellular components, including soluble tubulin. The wells were washed with HBSS (100 μL/well), followed by addition of a primary antibody solution containing mouse anti-α-tubulin (1:3000) and rabbit anti-phosphohistone H3 (1:500) in HBSS (10 μL/well). After 1 h at room temperature, the wells were washed with HBSS as above, followed by the addition of a secondary antibody solution containing fluorescein-5-isothiocyanate (FITC)-labeled donkey anti-mouse (1:300) and Cy3-labeled donkey anti-rabbit (1:300) antibodies diluted in HBSS (10 μL/well). After 1 h at room temperature, the wells were washed as above, and HBSS was added (100 μL/well). The plates were placed in an ArrayScan® HCS Reader with the Target Activation BioApplication Software coupled to Cellomics® Store and the vHCS™ Discovery Toolbox (Cellomics, Inc.) to analyze images. Briefly, the instrument was used to scan multiple optical fields, each with multiparameter fluorescence, within a subset of the wells of the 384-well microplate. The BioApplication software produced multiple numerical feature values, such as subcellular object intensities, shapes, and location for each cell within an optical field. […] A nuclear mask was generated from Hoechst 33342-stained nuclei, and object identification thresholds and shape parameters were set such that the algorithm identified over 90% of the nuclei in each field. Objects that touched each other or the edge of the image were excluded from the analysis. Tubulin mass was defined as the average green (FITC) pixel intensity in an area defined by the Hoechst-defined nuclear mask. This cytoplasmic area around the nucleus contains cytoskeletal components is a region from which sensitive measurements of cytoplasmic characteristics can be made.

Setting [4] is: Homo sapiens, Ovarian carcinoma cell, 72 h, read-out: GI50 ± S.D., 1A9 parental cells, 72 h incubation.
The mark [5] stands for this setting: Homo sapiens, 1A9/ptx-10, 72 h, read-out: GI50 ± S.D., 1A9/Ptx10 (Phe270 −> Val), 72 h incubation.
[6] abbreviates: Homo sapiens, 1A9/ptx-22, 72 h, read-out: GI50 ± S.D., 1A9/Ptx22 (Ala364 −> Thr), 72 h incubation.

As for `C=C/C=C\[C@H](C)[C@H](O)[C@@H](C)[C@H](O)CC[C@H](C)C[C@H](C)[C@@H](O)[C@@H](C)/C=C\[C@@H](O)C[C@H](O)[C@H](C)/C=C/C=C\C(=O)OC` [Compound 50, (2Z,4E,6R,7S,9S,10Z,12S,13R,14S,16S,19R,20S,21S,22S,23Z)-Methyl-7,9,13,19,21-penta-hydroxy-6,12,14,16,20,22-hexamethylhexacosa-2,4,10,23,25-pentaenoate], the GI50 in test [1] (setting [4]) came out at 56 ± 16 nM. The “antiproliferative potency / GI50 values (in words)” value in test [1] was “mid-nanomolar range”. Besides, in test [2], the fold-resistance is 1.4 fold. Besides, the GI50 in test [2] (setting [5]) was determined as 79 ± 13 nM. The fold-resistance in test [3] is listed as 1.5 fold. Further, the GI50 in test [3] (setting [6]) was 85 ± 2 nM. In the test with Bovine brain tubulin, the “percent polymer formed (in words)” value is “moderate activity”, the “% Tubulin polymerized by 50 μM test agent” value (“% Tubulin polymerized” for short) stood at 39 ± 7% and the concentration for a half-maximal effect (EC50) was more than 50 µM. In the test with HeLa cells, the “Minimum detectable cellular change, Phosphohistone H3” value was 149 ± 23.6 (4); the “Minimum detectable cellular change, Tubulin polymer intensity” value was 219 ± 36 (4); the “Minimum detectable cellular change, Nuclear condensation” value was 479 ± 182 (4).

On to `C=CC=CC(C)C1OC(=O)C=CC=CC(C)C(O)CC(O)C=CC(C)C(O)C(C)CC(C)CCC(O)C1C` [Compound 59, (8S,10S,14R,20S)-Tetrahydroxy-(7R,13S,15S,17S,21s)-pentamethyl-(22S)-((1S)-methylpenta-2,4-dienyl)-oxacyclodocosa-3,5,11-trien-2-one], for which the “antiproliferative potency / GI50 values (in words)” value in test [1] was “mid-nanomolar range”. Moreover, the GI50 in test [1] (read-out: GI50 ± S.D., 1A9 parental cells, 72 h incubation) turned out to be 21 ± 14 nM. In addition, the fold-resistance in test [2] is recorded as 5.7 fold. Moreover, the GI50 in test [2] (read-out: GI50 ± S.D., 1A9/Ptx10 (Phe270 −> Val), 72 h incubation) stood at 120 ± 60 nM. Further, in test [3], the fold-resistance was 2.0 fold. For the same compound, the GI50 in test [3] (read-out: GI50 ± S.D., 1A9/Ptx22 (Ala364 −> Thr), 72 h incubation) amounted to 43 ± 12 nM. Moreover, in the test on Bovine brain tubulin, the “percent polymer formed (in words)” value is given as “moderate activity”, the “% Tubulin polymerized” value worked out at 30 ± 2% and the EC50 is more than 50 µM. In addition, in the test with HeLa cells, the “Minimum detectable cellular change, Phosphohistone H3” value is given as 261 ± 91 (4); the “Minimum detectable cellular change, Tubulin polymer intensity” value was 284 ± 108 (4); the “Minimum detectable cellular change, Nuclear condensation” value is listed as 363 ± 146 (2).

As to `C=CC=CC(C)C1OC(=O)C=CC=CC(C)C(O)CC(O)C=CC(C)C(O)C(C)CCCCC(O)C1C` [Compound 79, (8S,10S,14R,20R)-Tetrahydroxy-(7R,13S,15S,21S)-tetramethyl-(22S)-((1S)-methylpenta-2,4-dienyl)-oxacyclodocosa-3,5,11-trien-2-one], the GI50 in test [1] (setting [4]) stood at 0.41 ± 0.52 nM; in test [2] (setting [5]), 470 ± 70 nM; in test [3] (setting [6]), 5.6 ± 4.7 nM. Besides, the “antiproliferative potency / GI50 values (in words)” value in test [1] is “essentially equipotent to 1”. Besides, the values for the fold-resistance in test [2] and in test [3] were 1146 fold and 14 fold, respectively. The “% Tubulin polymerized” value in the test on Bovine brain tubulin worked out at 91 ± 6%. In addition, the EC50 in the test on Bovine brain tubulin stood at 14 ± 7 µM. In addition, the “Minimum detectable cellular change, Phosphohistone H3” value in the test on HeLa cells is 34.4 ± 10.5 (4). Also, the “Minimum detectable cellular change, Tubulin polymer intensity” value in the test on HeLa cells is recorded as 26.9 ± 2.9 (4). The “Minimum detectable cellular change, Nuclear condensation” value in the test with HeLa cells is reported as 71.5 ± 18.0 (4).

On to `C=C/C=C\[C@H](C)[C@@H]1OC(=O)/C=C\C=C\[C@@H](C)[C@@H](O)C[C@H](O)/C=C\[C@H](C)[C@H](O)[C@@H](C)C[C@@H](C)CC[C@@H](O)[C@@H]1C` [dictyostatin-1, (8S,10S,14R,20R)-Tetrahydroxy-(7R,13S,15S,17S,21S)-pentamethyl-(22S)-((1S)-methylpenta-2,4-dienyl)oxacyclodocosa-3,5,11-trien-2-one, reference compound], for which the GI50 in test [1] (setting [4]) stood at 0.69 ± 0.8 nM. Further, the fold-resistance in test [2] turned out to be 4.6 fold. In addition, the GI50 in test [2] (setting [5]) was found to be 3.2 ± 2.4 nM. The fold-resistance in test [3] turned out to be 1.9 fold. The GI50 in test [3] (setting [6]) was 1.3 ± 1 nM. Moreover, in the test on Bovine brain tubulin, the “% Tubulin polymerized” value is listed as 99 ± 4% and the EC50 was 3.1 ± 0.2 µM. In addition, in the test on HeLa cells, the “Minimum detectable cellular change, Phosphohistone H3” value was 9.6 ± 2.4 (4); the “Minimum detectable cellular change, Tubulin polymer intensity” value is 7.4 ± 2.5 (4); the “Minimum detectable cellular change, Nuclear condensation” value is recorded as 32.7 ± 11.7 (3).

For the compound `C=C/C=C\[C@H](C)[C@H](OC(N)=O)[C@@H](C)[C@H](O)[C@@H](C)C/C(C)=C\[C@H](C)[C@@H](O)[C@@H](C)/C=C\[C@@H](O)C[C@@H]1OC(=O)[C@H](C)[C@@H](O)[C@H]1C` [discodermolide, reference compound], in test [1] (setting [4]), the GI50 was 1.7 ± 1.2 nM. Further, the fold-resistance in test [2] was determined as 3.6 fold. For the same compound, the GI50 in test [2] (setting [5]) worked out at 6.2 ± 3.6 nM. In addition, the fold-resistance in test [3] is 4.1 fold. Besides, the GI50 in test [3] (setting [6]) was 7 ± 8.4 nM. Moreover, in the test with Bovine brain tubulin, the “% Tubulin polymerized” value was 98 ± 5% and the EC50 was 3.6 ± 0.4 µM. In the test with HeLa cells, the “Minimum detectable cellular change, Phosphohistone H3” value is 38.4 ± 21.9 (2); the “Minimum detectable cellular change, Tubulin polymer intensity” value is listed as 64.6 ± 0.0 (2); the “Minimum detectable cellular change, Nuclear condensation” value is reported as 62.5 (1).
